The values that follow come from patent publication US20240043404A1 (AbbVie Inc., priority 2009, published 2024).

The test system of this assay is RS4;11 cells. The experiment in a line: RS4;11 cell viability assay (CellTiter Glo).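 Note: acute lymphoblastic leukemia line RS4,11, EC50 derived from percentage of viable cells after treatment relative to untreated controls, cell killing taken as a measure of Bcl-2 inhibition.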 The class given is cell-based, human. Particulars: read-out: RS4. On the technique in general: Cellular ATP, detected with luciferase, serves as a proxy for viable cell number.
Setting [1] is: Homo sapiens, RS4-11, 48 h, 50,000 cells per well, 10% human serum, 48 hours, 11 EC50 Values.

Structures are written as SMILES. Like-named read-outs stand apart in the source and are kept apart here.

Procedure: The acute lymphoblastic leukemia (ALL) cell line RS4;11 was used as the primary human cell line to assess the cellular activity of Bcl-2 selective agents in vitro and their efficacy in vivo.
Cell cytotoxicity EC50 values were assessed using CellTiter Glo (Promega) according to the manufacturer's recommendations. The EC50 values were determined as a percentage of viable cells following treatment compared to the untreated control cells.

For the compound `CC1(C)CCC(CN2CCN(c3ccc(C(=O)NS(=O)(=O)c4ccc(NC5CCN([C@H]6CCOC[C@H]6F)CC5)c([N+](=O)[O-])c4)c(Oc4cnc5[nH]ccc5c4)c3)CC2)=C(c2ccc(Cl)cc2)C1` (relative stereo) [Example 115, 4-(4-{[2-(4-chlorophenyl)-4,4-dimethylcyclohex-1-en-1-yl]methyl}piperazin-1-yl)-N-{[4-({1-[cis-3-fluorotetrahydro-2H-pyran-4-yl]piperidin-4-yl}amino)-3-nitrophenyl]sulfonyl}-2-(1H-pyrrolo[2,3-b]pyridin-5-yloxy)benzamide], under setting [1], the EC50 worked out at 0.0118 µM.
Regarding `CC1(C)CCC(CN2CCN(c3ccc(C(=O)NS(=O)(=O)c4ccc(NCC5(F)CCOCC5)c([N+](=O)[O-])c4)c(Oc4cnc5[nH]ccc5c4)c3)CC2)=C(c2ccc(Cl)cc2)C1` [Example 138, 4-(4-{[2-(4-chlorophenyl)-4,4-dimethylcyclohex-1-en-1-yl]methyl}piperazin-1-yl)-N-[(4-{[(4-fluorotetrahydro-2H-pyran-4-yl)methyl]amino}-3-nitrophenyl)sulfonyl]-2-(1H-pyrrolo[2,3-b]pyridin-5-yloxy)benzamide], the EC50 under setting [1] was 0.00152 µM.
For `CN1CCC(Nc2ccc(S(=O)(=O)NC(=O)c3ccc(N4CCN(CC5=C(c6ccc(Cl)cc6)CC(C)(C)CC5)CC4)cc3Oc3ccc4[nH]ccc4c3)cc2[N+](=O)[O-])CC1` [Example 90, 4-(4-{[2-(4-chlorophenyl)-4,4-dimethylcyclohex-1-en-1-yl]methyl}piperazin-1-yl)-2-(1H-indol-5-yloxy)-N-({4-[(1-methylpiperidin-4-yl)amino]-3-nitrophenyl}sulfonyl)benzamide], the EC50 is 0.063 µM under setting [1] and 0.063 µM (Homo sapiens, RS4-11, Table 5, direct comparison Z=N with corresponding analogs Z=C, 11 EC50).
Take `COC1(Cc2ccccc2-c2ccc(Cl)cc2)CCN(c2ccc(C(=O)NS(=O)(=O)c3ccc(NCC4CCOCC4)c([N+](=O)[O-])c3)c(Oc3cnc4[nH]ccc4c3)c2)CC1` [Example 264, 4-{4-[(4′-chlorobiphenyl-2-yl)methyl]-4-methoxypiperidin-1-yl}-N-({3-nitro-4-[(tetrahydro-2H-pyran-4-ylmethyl)amino]phenyl}sulfonyl)-2-(1H-pyrrolo[2,3-b]pyridin-5-yloxy)benzamide]: under setting [1], the EC50 was determined as 0.689 µM.
As to `CC1(C)CCC(CN2CCN(c3ccc(C(=O)NS(=O)(=O)c4ccc(NCC56CC7CC(C5)C(O)C(C7)C6)c([N+](=O)[O-])c4)c(Oc4cnc5[nH]ccc5c4)c3)CC2)=C(c2ccc(Cl)cc2)C1` (centres unmarked) [Example 199, 4-(4-{[2-(4-chlorophenyl)-4,4-dimethylcyclohex-1-en-1-yl]methyl}piperazin-1-yl)-N-{[4-({[(E)-4-hydroxy-1-adamantyl]methyl}amino)-3-nitrophenyl]sulfonyl}-2-(1H-pyrrolo[2,3-b]pyridin-5-yloxy)benzamide], the EC50 (50,000 cells per well, 10% human serum, 48 hours, 11 EC50 Values) is 0.00506 µM.
`CC1(C)CCC(CN2CCN(c3ccc(C(=O)NS(=O)(=O)c4ccc(NC5CCC(NC6CC6(F)F)CC5)c([N+](=O)[O-])c4)c(Oc4cnc5[nH]ccc5c4)c3)CC2)=C(c2ccc(Cl)cc2)C1` (centres unmarked) [Example 349, 4-(4-{[2-(4-chlorophenyl)-4,4-dimethylcyclohex-1-en-1-yl]methyl}piperazin-1-yl)-N-{[4-({4-[(2,2-difluorocyclopropyl)amino]cyclohexyl}amino)-3-nitrophenyl]sulfonyl}-2-(1H-pyrrolo[2,3-b]pyridin-5-yloxy)benzamide]: the EC50 under setting [1] came out at 0.0231 µM.
As for `CC1(C)CCC(CN2CCN(c3ccc(C(=O)NS(=O)(=O)c4ccc(NC5CCN(C(C)(C)C)CC5)c([N+](=O)[O-])c4)c(Oc4cnc5[nH]ccc5c4)c3)CC2)=C(c2ccc(Cl)cc2)C1` [Example 227, N-({4-[(1-tert-butylpiperidin-4-yl)amino]-3-nitrophenyl}sulfonyl)-4-(4-{[2-(4-chlorophenyl)-4,4-dimethylcyclohex-1-en-1-yl]methyl}piperazin-1-yl)-2-(1H-pyrrolo[2,3-b]pyridin-5-yloxy)benzamide], under setting [1], the EC50 stood at 0.00736 µM.
